Counter-ions that a name gives are not always drawn.

Common to all, as to type: biochemical
In test [1] the target is activated factor IIa (thrombin) (Homo sapiens, UniProt P00734). Briefly: Measurement of inhibitory activity against activated factor II (chromogenic substrate S-2238). The conditions noted are these: 0.125 U/ml thrombin, 0.1 mM S-2238, absorbance 405 nm; read-out: FIIa (pIC50) (converted). The procedure: Experimental Example 2 Measurement of Inhibitory Activity Against Activated Factor II (FIIa, Thrombin)
Using a 96-well plate (#3396, Costar), 100 mM Tris-HCl buffer (130 μL) containing 0.02% Tween 20, 0.1% PEG6000 and 0.2M NaCl was admixed with 0.125 U/ml activated factor IIa (thrombin) (10 μL) and a test compound (10 μL) for 10 min and a color developing substrate 0.1 mM S-2238 (50 μL) was added. Using a microplate reader Benchmark Plus (BIO-RAD), the reaction rate was measured from the time course changes at absorbance 405 nm. Using the reaction rate of the control as 100%, the negative logarithmic value of the concentration that can suppress the reaction rate of the control by 50% was taken as the pIC50 value.

Test [2] addresses FXa (Homo sapiens, UniProt P00742). Briefly: Measurement of inhibitory activity against activated factor X (chromogenic substrate S-2222). The conditions noted are these: 0.015 U/ml FXa, 0.2 mM S-2222, absorbance 405 nm; read-out: FXa (pIC50) (converted). Here is the method: Experimental Example 1 Measurement of Inhibitory Activity Against Activated Factor X Activity
Using a 96-well plate (#3396, Costar), 100 mM Tris-HC1 buffer (130 μL) containing 0.02% Tween 20, 0.1% PEG6000 and 0.2M NaCl was admixed with 0.015 U/ml FXa (10 μL) and a test compound (10 μL) for 10 min and a color developing substrate 0.2 mM S-2222 (50 μL) was added. Using a microplate reader Benchmark Plus (BIO-RAD), the reaction rate was measured from the time course changes at absorbance 405 nm. Using the reaction rate of the control as 100%, the negative logarithmic value of the concentration that can suppress the reaction rate of the control by 50% was taken as the pIC50 value.

For test [3], the system named is human plasma. Briefly: Anti-blood coagulant activity, aPTT method, Sysmex Cs-2000i (Experimental Example 3-2). The conditions noted are these: negative logarithmic value of the concentration that prolongs aPTT of the control 2 times. The procedure:
Experimental Example 3-2 Measurement of Anti-Blood Coagulant Activity
An aPTT measurement method using totally automatic blood coagulation time measuring apparatus Sysmex Cs-2000i was used. A 10 mg/ml DDVP solution (DDVP standard product, Wako) (8 μL) and a test compound solution (40 μL) were placed in a sample tube (MS-18, Japan Medical Science), human plasma (standard human plasma for blood coagulation test, GCH-100A, Sysmex) (360 μL) was added and the mixture was used as a test sample. The test sample (50 μL) was incubated at 37° C. for 1 min, data fi APTT (rabbit brain-derived cephalin, DADE Behiring) (50 μL) was added, and the mixture was further incubated at 37° C. for 2 min. To the sample solution was added 0.02M calcium chloride (50 μL), and the time until plasma coagulation was automatically measured.
As the anti-blood coagulant activity, the negative logarithmic value of the concentration that prolongs aPTT of the control 2 times is shown as paPTT2.

FXa, sequence (P00742 235-488 limits assumed): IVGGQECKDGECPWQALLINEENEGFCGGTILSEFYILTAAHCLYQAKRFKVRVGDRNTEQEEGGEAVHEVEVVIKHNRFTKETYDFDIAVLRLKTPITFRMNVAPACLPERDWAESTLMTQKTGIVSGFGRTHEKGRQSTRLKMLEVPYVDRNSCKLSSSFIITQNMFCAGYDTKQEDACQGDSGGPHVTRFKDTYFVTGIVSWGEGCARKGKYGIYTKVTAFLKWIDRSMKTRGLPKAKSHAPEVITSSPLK
FXa, sequence (P00742 41-179 partner limits assumed): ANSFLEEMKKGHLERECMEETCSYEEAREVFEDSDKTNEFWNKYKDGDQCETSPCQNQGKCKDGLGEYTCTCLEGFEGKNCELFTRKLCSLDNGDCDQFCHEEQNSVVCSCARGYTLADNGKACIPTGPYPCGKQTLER

Consider `CC(=N)N1CCC(Oc2ccc(OC(=O)c3cc(C(F)(F)F)nn3-c3cccc(C(=N)N)c3)cc2)CC1` [compound of Ex. 57, 4-[(1-ethanimidoylpiperidin-4-yl)oxy]phenyl 1-{3-[amino(imino)methyl]phenyl}-3-(trifluoromethyl)-1H-pyrazole-5-carboxylate 2 trifluoroacetate], for which the IC50 in test [1] was 6.92 µM; in test [2], 0.00537 µM.
Turning to `CCC(C)[C@H](C(=O)Oc1ccc(C(=N)N2CCCC2)cc1F)N(C)c1cccc(C(=N)N)c1` (stereo partly drawn) [compound of Ex. 39, 2-fluoro-4-[imino(pyrrolidin-1-yl)methyl]phenyl N-{3-[amino(imino)methyl]phenyl}-N-methyl-L-isoleucinate 2 trifluoroacetate], the figures for the IC50 in test [1] and in test [2] were 25.7 µM and 0.0151 µM, respectively. The compound further displayed a paPTT2 in test [3] of 6.50.
As to `N=C(N)c1cccc(N2CCCC[C@@H]2C(=O)Oc2ccc(C(=N)N3CCCC3)nc2)c1` [compound of Ex. 50, 6-[imino(pyrrolidin-1-yl)methyl]pyridin-3-yl (2R)-1-{3-[amino(imino)methyl]phenyl}piperidine-2-carboxylate 2 trifluoroacetate], the IC50 is 3.63 µM in test [1] and 0.0055 µM in test [2]. The same compound returned a paPTT2 in test [3] of 6.66.
`N=C(N)c1cccc(N2CCCC[C@@H]2C(=O)Oc2ccc(C(=N)N3CCCC3)cc2F)c1` [compound of Ex. 21, 2-fluoro-4-[imino(pyrrolidin-1-yl)methyl]phenyl (2R)-1-{3-[amino(imino)methyl]phenyl}piperidine-2-carboxylate 2 trifluoroacetate]: the IC50 is 1.91 µM in test [1] and 0.00513 µM in test [2]. The same compound registered a paPTT2 in test [3] of 6.94.
On the same counts, the results for `CCC(C)[C@@H](C(=O)Oc1ccc(C(=N)N2CCCC2)cc1)N(C)c1cccc(C(=N)N)c1` (stereo partly drawn) [compound of Ex. 33, 4-[imino(pyrrolidin-1-yl)methyl]phenyl N-{3-[amino(imino)methyl]phenyl}-N-methyl-L-isoleucinate 2 trifluoroacetate] are 13.2 µM, 0.00813 µM and 6.80.
With `CC(=N)N1CCC(Oc2ccc(OC(=O)[C@H](CO)N(C)c3cccc(C(=N)N)c3)cc2)CC1` [compound of Ex. 42, 4-[(1-ethanimidoylpiperidin-4-yl)oxy]phenyl N-{3-[amino(imino)methyl]phenyl}-N-methyl-L-serinate 2 trifluoroacetate], the results for the IC50 in test [1] and in test [2] were 51.3 µM and 0.0138 µM, respectively. The paPTT2 in test [3] stood at 6.64.
On the same counts, the results for `CCC(C(=O)Oc1ccc(C(=N)N2CCCC2)cc1)N(C)c1cccc(C(=N)N)c1` (centres unmarked) [compound of Ex. 47, 4-[imino(pyrrolidin-1-yl)methyl]phenyl 2-[{3-[amino(imino)methyl]phenyl}(methyl)amino]butanoate 2 trifluoroacetate] are 22.4 µM, 0.00813 µM and 6.82.
On the same counts, the results for `CC(C)[C@@H](C(=O)Oc1ccc(C(=N)N2CCCC2)cc1)N(C)c1cccc(C(=N)N)c1` [compound of Ex. 28, 4-[imino(pyrrolidin-1-yl)methyl]phenyl N-{3-[amino(imino)methyl]phenyl}-N-methyl-L-valinate 2 trifluoroacetate] are 14.1 µM, 0.0309 µM and 6.55.
Turning to `CCCC[C@H](C(=O)Oc1ccc(OC2CCN(C(C)=N)CC2)cc1)N(C)c1cccc(C(=N)N)c1` [compound of Ex. 41, 4-[(1-ethanimidoylpiperidin-4-yl)oxy]phenyl N-{3-[amino(imino)methyl]phenyl}-N-methyl-L-norleucinate 2 trifluoroacetate], the IC50 was 2.19 µM in test [1] and 0.00295 µM in test [2]. Also, the paPTT2 in test [3] turned out to be 6.53.
The corresponding values for `CC(=N)N1CCC(Oc2ccc(OC(=O)[C@H](C)N(C)c3cccc(C(=N)N)c3)cc2)CC1` [compound of Ex. 6, 4-[(1-ethanimidoylpiperidin-4-yl)oxy]phenyl N-{3-[amino(imino)methyl]phenyl}-N-methyl-L-alaninate 2 trifluoroacetate] are 33.1 µM, 0.0145 µM and 6.81.
Consider `CCCC[C@@H](C(=O)Oc1ccc(C(=N)N2CCCC2)cc1C)N(C)c1cccc(C(=N)N)c1` [compound of Ex. 45, 4-[imino(pyrrolidin-1-yl)methyl]-2-methylphenyl N-{3-[amino(imino)methyl]phenyl}-N-methyl-L-norleucinate 2 trifluoroacetate], for which the IC50 in test [1] is 2.57 µM; in test [2], 0.00302 µM. Moreover, the paPTT2 in test [3] was 6.71.
`N=C(N)c1cccc(N2CCCC[C@@H]2C(=O)Oc2ccc(C(=N)N3CCCC3)cc2Cl)c1` [compound of Ex. 20, 2-chloro-4-[imino(pyrrolidin-1-yl)methyl]phenyl (2R)-1-{3-[amino(imino)methyl]phenyl}piperidine-2-carboxylate 2 trifluoroacetate]: the IC50 was 1.2 µM in test [1] and 0.00646 µM in test [2]. The compound further returned a paPTT2 in test [3] of 6.93.
The corresponding values for `CN(c1cccc(C(=N)N)c1)[C@@H](Cc1ccccc1)C(=O)Oc1ccc(C(=N)N2CCCC2)cc1` [compound of Ex. 46, 4-[imino(pyrrolidin-1-yl)methyl]phenyl N-{3-[amino(imino)methyl]phenyl}-N-methyl-L-phenylalaninate 2 trifluoroacetate] are 15.5 µM, 0.00295 µM and 6.87.
`CCCC[C@@H](C(=O)Oc1ccc(C(=N)N2CCCC2)cc1OC)N(C)c1cccc(C(=N)N)c1` [compound of Ex. 43, 4-[imino(pyrrolidin-1-yl)methyl]-2-methoxyphenyl N-{3-[amino(imino)methyl]phenyl}-N-methyl-L-norleucinate 2 trifluoroacetate]: the figures for the IC50 in test [1] and in test [2] were 0.977 µM and 0.00309 µM, respectively. The paPTT2 in test [3] worked out at 6.90.
In the case of `CC(=N)N1CCC(Oc2ccc(OC(=O)[C@@H](C)N(C)c3cccc(C(=N)N)c3)cc2)CC1` [compound of Ex. 7, 4-[(1-ethanimidoylpiperidin-4-yl)oxy]phenyl N-{3-[amino(imino)methyl]phenyl}-N-methyl-D-alaninate 2 trifluoroacetate], the values for the IC50 in test [1] and in test [2] were 33.1 µM and 0.0214 µM, respectively. The same compound showed a paPTT2 in test [3] of 6.85.
On to `CC(=N)N1CCC(Oc2ccc(OC(=O)[C@@H](COC(C)(C)C)N(C)c3cccc(C(=N)N)c3)cc2)CC1` [compound of Ex. 40, 4-[(1-ethanimidoylpiperidin-4-yl)oxy]phenyl N-{3-[amino(imino)methyl]phenyl}-O-(tert-butyl)-N-methyl-L-serinate 2 trifluoroacetate], for which the values for the IC50 in test [1] and in test [2] were 34.7 µM and 0.00447 µM, respectively. The compound further gave a paPTT2 in test [3] of 6.53.
The corresponding values for `COC(=O)c1cc(C(=N)N2CCCC2)ccc1OC(=O)[C@H]1CCCCN1c1cccc(C(=N)N)c1` [compound of Ex. 51, 4-[imino(pyrrolidin-1-yl)methyl]-2-(methoxycarbonyl)phenyl (2R)-1-{3-[amino(imino)methyl]phenyl}piperidine-2-carboxylate 2 trifluoroacetate] are 2.24 µM, 0.0141 µM and 6.79.
The corresponding values for `CC(C)C[C@@H](C(=O)Oc1ccc(C(=N)N2CCCC2)cc1)N(C)c1cccc(C(=N)N)c1` [compound of Ex. 29, 4-[imino(pyrrolidin-1-yl)methyl]phenyl N-{3-[amino(imino)methyl]phenyl}-N-methyl-L-leucinate 2 trifluoroacetate] are 25.7 µM, 0.0112 µM and 6.72.
The corresponding values for `COc1cc(C(=N)N2CCCC2)ccc1OC(=O)[C@H](C)N(C)c1cccc(C(=N)N)c1` [compound of Ex. 36, 4-[imino(pyrrolidin-1-yl)methyl]-2-methoxyphenyl N-{3-[amino(imino)methyl]phenyl}-N-methyl-L-alaninate 2 trifluoroacetate] are 7.08 µM, 0.0316 µM and 6.67.

For the origin of these results see patent publication US20130023563A1, “AMIDINOANILINE DERIVATIVE” (AJINOMOTO CO., INC., priority 2010, published 2013).
